{"source": "patent US12275985B2", "about": "“Redox labeled oligonucleotide probes and their use” (ABBOTT DIAGNOSTICS SCARBOROUGH, INC., priority 2016, dated 2025)", "key": {"[1]": {"test_system": "InfA[PA] and InfB[PA] DNA", "experiment": "Duplexed RPA detection with 1:1 mixture of MB- and PZ9-labelled probes on HeartCheck sensor", "set-up": "species or system Influenza A and Influenza B", "details": "duplexed detection at 15 min, 10^7 copies of each target, third order polynomial baseline correction"}, "[2]": {"experiment": "DPV detection of cleaved redox labels in RPA reactions (peak potential and current)", "assay_type": "physicochemical", "details": "for E (DPV peak potential of cleaved label) / ΔE vs MB: label cleaved from Fpg probe in RPA, DPV", "protocol": "DNA and RNA amplification by RPA can be monitored in real-time or by end-product detection using the TwistAmp® basic kit with DPV detection. Briefly, a clinical sample (e.g., a clinical swab or wipe) is added to an RPA reagent mixture specific for a target nucleic acid sequence, the reagent mixture containing an Exo or Fpg oligonucleotide probe labeled with a redox-moiety, such as those described above, and maintained at 37° C.-42° C. for a time sufficient for amplification. Incubation in the presence of an ExoIII or Fpg exonuclease results in cleavage of probe/target DNA hybrids which allows for liberation of the redox-moiety (see FIG. 14). The liberated redox-moiety can be detected by, for example, amperometry, voltammetry (e.g., Differential Pulse voltammetry), and AC-impedance. Where the redox label has been cleaved from the probe/target complex (i.e., a sample positive for the target nucleic acid) a peak in current is observed at a voltage which corresponds to the oxidation potential of the label. Where the redox label has not been released from the oligonucleotide probe (i.e., a sample negative for the target nucleic acid), no peak is observed.\nA “DPV output” of a given RPA reaction is determined by measuring the signal current generated by the redox-label present in the reaction in response to applied potentials. The DPV procedure requires the definition of several key parameters: interval period (related to scan rate), step potential, amplitude of the pulse (amp) and time of the pulse (pulse width). An example of these settings were: interval period 0.1 s, step potential 5 mV, pulse amplitude 75 mV and pulse width 30 ms. In addition to these parameters for the actual measurement, the DPV protocol also entails a series of 3 initial sequences of potential changes (“sweeps”) the output of which is not being directly quantified.\nAt FIG. 1, a method for electrochemical detection of an amplified nucleic acid target sequence according to an embodiment of the present invention is show. […] In the presence of the target, multiple copies of the DNA strand complementary to the labeled oligonucleotide probe are generated using a nucleic acid amplification method, such as, for example, PCR, RPA (shown), or NEAR. Following amplification, the DNA strand complementary to the labeled oligonucleotide probe anneal (i.e., hybridize) with the probe and form a double-stranded substrate. In the presence of a nuclease, the redox moiety (i.e., redox label) is enzymatically cleaved from (e.g., separated from) from the double-stranded substrate effecting release of the redox label. Once cleaved, the redox moiety (i.e., redox label) is able to diffuse and interact with the electrode and detection of the redox moiety is achieved by, for example, DPV, whereby a potential window (E) is swept in a stepwise fashion, and the Faradaic current (I) associated with reduction of the label is recorded. Diffusing redox labels that have been enzymatically released from oligonucleotide probes generate a larger current response, thus enabling electrochemical detection of target amplification.\nFor example, during initial studies on Alere HeartCheck electrodes, redox moieties with a reduction potential (versus a Ag/AgCl reference electrode) of between approximately […] were considered optimal for multiplexing (FIG. 2). In order to resolve two redox moieties which fall within this window, a difference (ΔE) of approximately ≥50 mV in their peak potential is predicted to be sufficient. Thus, in the case of the HeartCheck electrode, there is a theoretical maximum multiplexing capacity of 5 labels within this window. Note however that alternative (electrode-dependent) windows for detection may be determined."}, "[3]": {"experiment": "Aqueous solubility of redox label", "assay_type": "physicochemical"}}, "data": [{"smiles": "CN(C)c1ccc2nc3ccc(N(C)C)cc3[s+]c2c1.[Cl-]", "note": "[Methylene Blue, 3,7-bis(Dimethylamino)-phenothiazin-5-ium chloride]", "values": [{"measurement": "Emax of calculated Gaussian curve", "setting": "[1]", "value": "−0.3731", "unit": "V"}, {"measurement": "reduction peak potential", "setting": "[2]; vs Ag/AgCl during DPV in an RPA context", "value": "−320", "unit": "mV"}]}, {"smiles": "C[N+](C)=c1ccc2nc3c(cc(NCCC(=O)O)c4ccccc43)oc-2c1.[Cl-]", "note": "[PO1, N-(5-(2-carboxyethylamino)-9H-benzo[a]phenoxazin-9-ylidene)-N-methylmethanaminium chloride]", "values": [{"measurement": "E (DPV peak potential of cleaved label)", "setting": "[2]", "value": "~−0.52", "unit": "V"}, {"measurement": "ΔE vs MB", "setting": "[2]", "value": "~−140", "unit": "mV"}]}, {"smiles": "CC/[N+](CCCS(=O)(=O)[O-])=c1/ccc2nc3ccc(N(C)CCC(=O)O)cc3oc-2c1", "note": "[PO2, N-(3-(N-methyl(2-carboxyethyl)amino)phenoxazin-7-ylidene)-N-ethyl(3-sulfonatopropyl)aminium chloride]", "values": [{"measurement": "aqueous solubility", "setting": "[3]", "value": "good aqueous solubility"}, {"measurement": "E (DPV peak potential of cleaved label)", "setting": "[2]", "value": "~−0.44", "unit": "V"}, {"measurement": "ΔE vs MB", "setting": "[2]", "value": "~−60", "unit": "mV"}]}, {"smiles": "CN(CCCC(=O)O)c1ccc2nc3ccc(N(C)c4ccccc4)cc3[s+]c2c1.[Cl-]", "note": "[PZ9]", "values": [{"measurement": "Emax of calculated Gaussian curve", "setting": "[1]", "value": "−0.3046", "unit": "V"}, {"measurement": "ΔE vs MB", "setting": "[2]", "value": "~+60 mV"}]}]}
